Laboratory results as given in patent US20080085264A1, “METHODS FOR ENHANCING STEM CELL ENGRAFTMENT DURING TRANSPLANTATION” (priority 2003, published 2008).

Legend:
[1] = test system: Sca-1+c-kit+lin- mBM cells; test: Chemotaxis assay, CXCL12 induced migration of sorted Sca-1+c-kit+lin- mBM cells; type: cell-based, mouse; conditions: 5 mM Diprotin A
Description: (§1) Chemotaxis assays were performed using 96-well chemotaxis chambers (NeuroProbe, Gaithersburg, Md.) in accordance with manufacturer's instructions as described previously with minor variations (Christopherson K W, 2nd, et al. J Immunol. 2002; 169:7000-7008; Christopherson K W, 2nd, et al. Blood. 2001; 98:3562-3568; Christopherson K, 2nd, et al. Immunol Lett. 1999; 69:269-273). Briefly 300 μl of RPMI supplemented with 10% FBS and either 0, 100, 200, and 400 ng/ml of mouse CXCL12 chemokine was added to the lower chamber. Ten-thousand sorted cells in 50 μL of media were added to the upper side of the membrane (5.7 mm diameter, 5 μm pore size, polycarbonate membrane.)
(§2) Total cell number in the lower well was obtained by counting using hemocytometer after 4 hours of incubation at 37° C., 5% CO2. Percent migration was calculated by dividing the number of the cells in the lower well by the total cell input multiplied by 100 and subtracting random migration (always less than 5%) to the lower chamber without chemokine presence. Three samples were analyzed separately in triplicate, and then the data averaged for statistical analysis.
(§3) The N-terminal truncated mouse CXCL12 (CXCL12 (amino acids 3-68)) was produced by treatment of mouse CXCL12 with DPPIV (Enzyme Systems Products, Livermore, Calif.) for 18 hrs at 37° C. in PBS pH 7.4. […]

[2] = test system: Sca-1+c-kit-lin- mBM cells; test: Chemotaxis assay, CXCL12 induced migration of sorted Sca-1+c-kit-lin- mBM cells; type: cell-based, mouse; conditions: 5 mM Diprotin A
Description: as §1, §2, §3

BoyJ recipient mice = test: Short-term homing of donor Sca-1+lin- cells to recipient bone marrow; type: in vivo, mouse
Description: Control C57BL/6 (CD45.2^+), CD26 inhibitor treated C57BL/6 (CD45.2^+), or CD26^−/− (CD45.2^+) sorted Sca-1^+lin^− or LD donor BM cells were transplanted by tail-vein injection into lethally irradiated (1100 cGy split dose) congenic BoyJ (CD45.1^+) female recipient mice (Haneline L S, et al. Blood. 1999; 94:1-8.) Contribution of Sca^+lin^− donor cells in the context of Sca-1^+lin^− recipient cells was calculated by flow cytometric analysis of cells found in the recipient mouse BM by measuring CD45.1+ and CD45.2^+ on Sca-1^+lin^− LD cells isolated from the recipient mice 24 hours post transplant. […] Comparisons between treatment groups were made using a two-tailed Student's t-test and data was plotted as mean (M)±standard error of the mean (SEM).

BoyJ irradiated mice = test: Competitive repopulation assay; type: in vivo, mouse; conditions: six months post transplant, 5×10^5 or 2.5×10^5 donor cells vs 5×10^5 competitor BoyJ cells
From the text: Donor LDBM cells (5×10^5) from representative mice from each test group were transplanted into lethally irradiated BoyJ mice (expressing CD45.1) Quantitative contribution to chimerism was obtained 2-6 months post-transplantation in the same manner described for long-term engraftment assays.
Eight week old female recipient mice were lethally irradiated (1100 cGy split dose) prior to transplantation as previously described (Haneline L S, et al. Blood. 1999; 94:1-8). Limiting dilutions of donor LD BM cells (5×10^5, 2.5×10^5, 1.25×10^5, and 0.625×10^5 cells) from control C57Bl/6 mice, CD26-inhibitor treated LD BM cells, or untreated LD BM cells from CD26^−/− mice (all expressing CD45.2) are co-transplanted with a constant number (5×10^5) of pooled competitive BM cells from congenic BoyJ mice (expressing CD45.1), into BoyJ irradiated mice. To determine quantitatively the relative cell contribution to chimerism of each test cell population tail-vein blood samples were obtained post-transplantation each month for three months and CD45.1 and CD45.2 was measured by flow-cytometry. Cells were divided into CD26 inhibitor (either Diprotin A or Val-Pyr) treated or untreated groups obtained from normal C57BL/6 mice and untreated cells obtained from CD26^−/− mice. […]

## Ile-Pro-Ile [Diprotin A]
[1]; 100 ng/ml CXCL12
  enhancement in migration: two-fold
[1]; 200 and 400 ng/ml CXCL12
  increase in total cell migration: 1.7 fold
[2]; 100 ng/ml CXCL12
  increase in total cell migration: 2.5 fold
[2]; 200 and 400 ng/ml CXCL12
  increase in total cell migration: two-fold
BoyJ recipient mice; 1×10^4 sorted Sca-1+lin- BM C57Bl/6 donor cells treated 15 minutes prior to transplant, vs untreated cells
  increase in homing efficiency: 9 fold
BoyJ recipient mice; donor LDBM unit treated prior to transplant, P<0.01, n=6
  short-term homing of donor cells: significant increase in short-term homing
BoyJ irradiated mice
  donor contribution to chimerism: increased donor contribution to chimerism
